According to patent US20120270929A1, “MODULATION OF TTC39 EXPRESSION TO INCREASE HDL” (ISIS Pharmaceuticals, Inc., priority 2009, published 2012):
Oligonucleotides are written 5' to 3', each unit as a sugar letter and its base; * is a phosphorothioate linkage, no mark a phosphodiester; rarer units and linkages stand in square brackets, end groups in braces. Plain capitals give the bases only. e = 2'-O-(2-methoxyethyl) (MOE); [5mC] = 5-methylcytosine; d = 2'-deoxy (DNA)

Test system: murine TTC39B mRNA
Experiment: Antisense inhibition of murine TTC39B in mouse primary hepatocytes, single dose
Type: cell-based
Conditions: 100 nM, cytofectin, ~24 h, vs untreated control; gapmers targeted to SEQ ID NO: 6
Procedure: Antisense oligonucleotides targeted to a TTC39B nucleic acid were tested for their effects on TTC39B mRNA in vitro. Cultured mouse primary hepatocytes at a density of 10,000 cells per well were transfected using cytofectin reagent with 100 nM antisense oligonucleotide. After a treatment period of approximately 24 hours, RNA was isolated from the cells and TTC39B mRNA levels were measured by quantitative real-time PCR. TTC39B mRNA levels were adjusted according to total RNA content, as measured by RIBOGREEN®. Results are presented as percent inhibition of TTC39B, relative to untreated control cells.
The chimeric antisense oligonucleotides in Tables 1 and 2 were designed as 5-10-5 MOE gapmers. The gapmers are 20 nucleotides in length, wherein the central gap segment is comprised of 10 2′-deoxynucleotides and is flanked on both sides (in the 5′ and 3′ directions) by wings comprising 5 nucleotides each. Each nucleotide in the 5′ wing segment and each nucleotide in the 3′ wing segment has a 2′-MOE modification. The internucleoside linkages throughout each gapmer are phosphorothioate (P═S) linkages. All cytosine residues throughout each gapmer are 5-methylcytosines. “Target start site” indicates the 5′-most nucleotide to which the gapmer is targeted. “Target stop site” indicates the 3′-most nucleotide to which the gapmer is targeted. Each gapmer listed in Table 1 is targeted to SEQ ID NO: 6 (GENBANK Accession No. NM_027238.2) and each gapmer listed in Table 2 is targeted to SEQ ID NO: 10 (the complement of GENBANK Accession No. NT—039260.7 truncated at nucleotides 22491001 to 22601000), SEQ ID NO: 11 (GENBANK Accession No. BY244623.1), SEQ ID NO: 12 (GENBANK Accession No. BY260936), SEQ ID NO: 13 (GENBANK Accession No. BM935568.1) or SEQ ID NO: 14 (GENBANK Accession No. BY728780.1).

Substance	% inhibition of murine TTC39B mRNA [%]
CCGCACACCCACAGGGAACT (antisense e[5mC]*e[5mC]*eG*e[5mC]*eA*d[5mC]*dA*d[5mC]*d[5mC]*d[5mC]*dA*d[5mC]*dA*dG*dG*eG*eA*eA*e[5mC]*eT) [ISIS 447099]	56
TCCACCTTGGCTGATGAACC (antisense eT*e[5mC]*e[5mC]*eA*e[5mC]*d[5mC]*dT*dT*dG*dG*d[5mC]*dT*dG*dA*dT*eG*eA*eA*e[5mC]*e[5mC]) [ISIS 447104]	48
TCCACTCGGCTGCCCACGAG (antisense eT*e[5mC]*e[5mC]*eA*e[5mC]*dT*d[5mC]*dG*dG*d[5mC]*dT*dG*d[5mC]*d[5mC]*d[5mC]*eA*e[5mC]*eG*eA*eG) [ISIS 447100]	62
GACTTTGAGATGGCACACAA (antisense eG*eA*e[5mC]*eT*eT*dT*dG*dA*dG*dA*dT*dG*dG*d[5mC]*dA*e[5mC]*eA*e[5mC]*eA*eA) [ISIS 447152]	60
GACTTTTAATTCAAAGTCCT (antisense eG*eA*e[5mC]*eT*eT*dT*dT*dA*dA*dT*dT*d[5mC]*dA*dA*dA*eG*eT*e[5mC]*e[5mC]*eT) [ISIS 447153]	58
GCGCCTTCCCGGAGCTGCAG (antisense eG*e[5mC]*eG*e[5mC]*e[5mC]*dT*dT*d[5mC]*d[5mC]*d[5mC]*dG*dG*dA*dG*d[5mC]*eT*eG*e[5mC]*eA*eG) [ISIS 447116]	56
TCATATTTTCATCCTGCACA (antisense eT*e[5mC]*eA*eT*eA*dT*dT*dT*dT*d[5mC]*dA*dT*d[5mC]*d[5mC]*dT*eG*e[5mC]*eA*e[5mC]*eA) [ISIS 447109]	41
AGTATGAGGGAGCCATTTGG (antisense eA*eG*eT*eA*eT*dG*dA*dG*dG*dG*dA*dG*d[5mC]*d[5mC]*dA*eT*eT*eT*eG*eG) [ISIS 447117]	47
GGCAGAGTATAAGAATTTCT (antisense eG*eG*e[5mC]*eA*eG*dA*dG*dT*dA*dT*dA*dA*dG*dA*dA*eT*eT*eT*e[5mC]*eT) [ISIS 447133]	56
TACAGACCATGAGCTTTGAT (antisense eT*eA*e[5mC]*eA*eG*dA*d[5mC]*d[5mC]*dA*dT*dG*dA*dG*d[5mC]*dT*eT*eT*eG*eA*eT) [ISIS 447145]	61
TTTGGCAGGTTTGTAAAGCG (antisense eT*eT*eT*eG*eG*d[5mC]*dA*dG*dG*dT*dT*dT*dG*dT*dA*eA*eA*eG*e[5mC]*eG) [ISIS 447107]	61
CAGTAAAGTCTTGATTCTGC (antisense e[5mC]*eA*eG*eT*eA*dA*dA*dG*dT*d[5mC]*dT*dT*dG*dA*dT*eT*e[5mC]*eT*eG*e[5mC]) [ISIS 447126]	58
TCCAGAGATGAAGAGCTGCT (antisense eT*e[5mC]*e[5mC]*eA*eG*dA*dG*dA*dT*dG*dA*dA*dG*dA*dG*e[5mC]*eT*eG*e[5mC]*eT) [ISIS 447131]	60
GTTCCGGATCAGTCCGTGGA (antisense eG*eT*eT*e[5mC]*e[5mC]*dG*dG*dA*dT*d[5mC]*dA*dG*dT*d[5mC]*d[5mC]*eG*eT*eG*eG*eA) [ISIS 447132]	58
AGGACCTTGATGGCCTTGTC (antisense eA*eG*eG*eA*e[5mC]*d[5mC]*dT*dT*dG*dA*dT*dG*dG*d[5mC]*d[5mC]*eT*eT*eG*eT*e[5mC]) [ISIS 447130]	44
ATCCACATTAATTCCCAGTA (antisense eA*eT*e[5mC]*e[5mC]*eA*d[5mC]*dA*dT*dT*dA*dA*dT*dT*d[5mC]*d[5mC]*e[5mC]*eA*eG*eT*eA) [ISIS 447120]	65
TTATACAAAAATGCCAACTC (antisense eT*eT*eA*eT*eA*d[5mC]*dA*dA*dA*dA*dA*dT*dG*d[5mC]*d[5mC]*eA*eA*e[5mC]*eT*e[5mC]) [ISIS 447129]	34
CGTGTCATTTATTAAATAAC (antisense e[5mC]*eG*eT*eG*eT*d[5mC]*dA*dT*dT*dT*dA*dT*dT*dA*dA*eA*eT*eA*eA*e[5mC]) [ISIS 447154]	22
AAAATATCTCTGAAGTTTAA (antisense eA*eA*eA*eA*eT*dA*dT*d[5mC]*dT*d[5mC]*dT*dG*dA*dA*dG*eT*eT*eT*eA*eA) [ISIS 447136]	24
GACAGCCTGCAACACCACAA (antisense eG*eA*e[5mC]*eA*eG*d[5mC]*d[5mC]*dT*dG*d[5mC]*dA*dA*d[5mC]*dA*d[5mC]*e[5mC]*eA*e[5mC]*eA*eA) [ISIS 447105]	52
CTTTATTGTACCTGCCAGTC (antisense e[5mC]*eT*eT*eT*eA*dT*dT*dG*dT*dA*d[5mC]*d[5mC]*dT*dG*d[5mC]*e[5mC]*eA*eG*eT*e[5mC]) [ISIS 447134]	53
CCTGATAAATCACAAATGCT (antisense e[5mC]*e[5mC]*eT*eG*eA*dT*dA*dA*dA*dT*d[5mC]*dA*d[5mC]*dA*dA*eA*eT*eG*e[5mC]*eT) [ISIS 447150]	46
GCAGCCATGGCCCTGGGTCA (antisense eG*e[5mC]*eA*eG*e[5mC]*d[5mC]*dA*dT*dG*dG*d[5mC]*d[5mC]*d[5mC]*dT*dG*eG*eG*eT*e[5mC]*eA) [ISIS 447141]	40

Same assay, conditions: 100 nM, cytofectin, ~24 h, vs untreated control; gapmers targeted to SEQ ID NO: 10-14

Substance	% inhibition of murine TTC39B mRNA [%]
TCCGGTGCGCACCCAGTACC (antisense eT*e[5mC]*e[5mC]*eG*eG*dT*dG*d[5mC]*dG*d[5mC]*dA*d[5mC]*d[5mC]*d[5mC]*dA*eG*eT*eA*e[5mC]*e[5mC]) [ISIS 447155]	23
GGTGCCCGGACCAGCCCGCT (antisense eG*eG*eT*eG*e[5mC]*d[5mC]*d[5mC]*dG*dG*dA*d[5mC]*d[5mC]*dA*dG*d[5mC]*e[5mC]*e[5mC]*eG*e[5mC]*eT) [ISIS 447158]	39
GAATTATTTATTCTCACACC (antisense eG*eA*eA*eT*eT*dA*dT*dT*dT*dA*dT*dT*d[5mC]*dT*d[5mC]*eA*e[5mC]*eA*e[5mC]*e[5mC]) [ISIS 447167]	56
GTTTCTTGAGCCTATAAGTC (eG*eT*eT*eT*e[5mC]*dT*dT*dG*dA*dG*d[5mC]*d[5mC]*dT*dA*dT*eA*eA*eG*eT*e[5mC]; antisense) [ISIS 447172]	54
TTCCAGCTCGGCTGCGCCAC (antisense eT*eT*e[5mC]*e[5mC]*eA*dG*d[5mC]*dT*d[5mC]*dG*dG*d[5mC]*dT*dG*d[5mC]*eG*e[5mC]*e[5mC]*eA*e[5mC]) [ISIS 447157]	21
GCCCATGCACGGGTGGAGGA (antisense eG*e[5mC]*e[5mC]*e[5mC]*eA*dT*dG*d[5mC]*dA*d[5mC]*dG*dG*dG*dT*dG*eG*eA*eG*eG*eA) [ISIS 447156]	16
CTGATGAACTTGATTTAGCC (antisense e[5mC]*eT*eG*eA*eT*dG*dA*dA*d[5mC]*dT*dT*dG*dA*dT*dT*eT*eA*eG*e[5mC]*e[5mC]) [ISIS 447166]	0
ATCATATTTTCATCCTGAAA (antisense eA*eT*e[5mC]*eA*eT*dA*dT*dT*dT*dT*d[5mC]*dA*dT*d[5mC]*d[5mC]*eT*eG*eA*eA*eA) [ISIS 447170]	35
GCCAGCCAGGGCAGGCACTC (antisense eG*e[5mC]*e[5mC]*eA*eG*d[5mC]*d[5mC]*dA*dG*dG*dG*d[5mC]*dA*dG*dG*e[5mC]*eA*e[5mC]*eT*e[5mC]) [ISIS 447163]	50

Test system: murine TTC39C mRNA
Experiment: Dose-dependent antisense inhibition of murine TTC39C in mouse primary hepatocytes
Type: cell-based
Conditions: 500.0 nM, electroporation, ~16 h
Procedure: Thirty antisense oligonucleotides were selected from the study described in Example 8 and further tested at various doses in mouse primary hepatocytes. Cells were plated at a density of 30,000 cells per well and transfected using electroporation with 500 nM, 1,000 nM, 2,000 nM, 4,000 nM, and 8,000 nM concentrations of antisense oligonucleotide, as specified in Table 30. After a treatment period of approximately 16 hours, RNA was isolated from the cells and TTC39C mRNA levels were measured by quantitative real-time PCR. Murine primer probe set RTS3266 was used to measure mRNA levels. TTC39C mRNA levels were adjusted according to total RNA content, as measured by RIBOGREEN®. Results are presented as percent inhibition of TTC39C, relative to untreated control cells.

Substance	percent inhibition of TTC39C mRNA [%]
ISIS 474654: 5-10-5 MOE gapmer antisense oligonucleotide targeting murine TTC39C (antisense eT*e[5mC]*eA*eG*e[5mC]*dT*dA*d[5mC]*dA*dG*dA*dA*d[5mC]*dG*d[5mC]*eA*eG*eG*eG*eT)	11

Same assay, conditions: 1000.0 nM, electroporation, ~16 h

Substance	percent inhibition of TTC39C mRNA [%]
ISIS 474654: 5-10-5 MOE gapmer antisense oligonucleotide targeting murine TTC39C (antisense eT*e[5mC]*eA*eG*e[5mC]*dT*dA*d[5mC]*dA*dG*dA*dA*d[5mC]*dG*d[5mC]*eA*eG*eG*eG*eT)	14

Same assay, conditions: 2000.0 nM, electroporation, ~16 h

Substance	percent inhibition of TTC39C mRNA [%]
ISIS 474654: 5-10-5 MOE gapmer antisense oligonucleotide targeting murine TTC39C (antisense eT*e[5mC]*eA*eG*e[5mC]*dT*dA*d[5mC]*dA*dG*dA*dA*d[5mC]*dG*d[5mC]*eA*eG*eG*eG*eT)	38

Same assay, conditions: 4000.0 nM, electroporation, ~16 h

Substance	percent inhibition of TTC39C mRNA [%]
ISIS 474654: 5-10-5 MOE gapmer antisense oligonucleotide targeting murine TTC39C (antisense eT*e[5mC]*eA*eG*e[5mC]*dT*dA*d[5mC]*dA*dG*dA*dA*d[5mC]*dG*d[5mC]*eA*eG*eG*eG*eT)	60

Same assay, conditions: 8000.0 nM, electroporation, ~16 h

Substance	percent inhibition of TTC39C mRNA [%]
ISIS 474654: 5-10-5 MOE gapmer antisense oligonucleotide targeting murine TTC39C (antisense eT*e[5mC]*eA*eG*e[5mC]*dT*dA*d[5mC]*dA*dG*dA*dA*d[5mC]*dG*d[5mC]*eA*eG*eG*eG*eT)	74

Same assay, conditions: mouse primary hepatocytes, electroporation, ~16 h

Substance	IC50 [µM]
ISIS 474654: 5-10-5 MOE gapmer antisense oligonucleotide targeting murine TTC39C (antisense eT*e[5mC]*eA*eG*e[5mC]*dT*dA*d[5mC]*dA*dG*dA*dA*d[5mC]*dG*d[5mC]*eA*eG*eG*eG*eT)	3.1
